# Assay results reported in patent US11787825B2 (priority 2021, dated 2023).
# Read-outs that look alike come from different tables or passages of the source.
# [1] = 0.1N HCL, 1.0% DMSO, 24-hour incubation at ambient temperature, maximum theoretical compound concentration 100 μM
# [2] = 1×PBS buffer (pH 7.4), 1.0% DMSO, 24-hour incubation at ambient temperature, maximum theoretical compound concentration 100 μM
Compound,pH 2 solubility [1],pH 7 solubility [2],pH 2 solubility (pH 2),pH 7 solubility (pH 7.4)
CC(C)(C#Cc1ccc(-c2ccc(Cl)c3c(N(C(=O)CN(CC(=O)O)CC(=O)O)S(C)(=O)=O)nn(CC(F)(F)F)c23)c([C@H](Cc2cc(F)cc(F)c2)NC(=O)Cn2nc(C(F)(F)F)c3c2C(F)(F)[C@@H]2C[C@H]32)n1)S(C)(=O)=O [Compound 23],14 μM,22 μM,–,–
"CC(C)(CC(=O)N(c1nn(CC(F)(F)F)c2c(-c3ccc(C#CC(C)(C)S(C)(=O)=O)nc3[C@H](Cc3cc(F)cc(F)c3)NC(=O)Cn3nc(C(F)(F)F)c4c3C(F)(F)[C@@H]3C[C@H]43)ccc(Cl)c12)S(C)(=O)=O)c1c(CC(=O)O)cccc1OP(=O)(O)O [Compound 70, 2-(2-(4-(N-(4-chloro-7-(2-((S)-1-(2-((3bS,4aR)-5,5-difluoro (trifluoromethyl)-3b,4,4a,5-tetrahydro-1H-cyclopropa[3,4]cyclopenta[1,2-c]pyrazolyl)acetamido)-2-(3,5-difluorophenyl)ethyl)-6-(3-methyl-3-(methylsulfonyl)but-1-ynyl)pyridin-3-yl)-1-(2,2,2-trifluoroethyl)-1H-indazol-3-yl)methylsulfonamido)-2-methyloxobutan-2-yl)-3-(phosphonooxy)phenyl)acetic acid]",–,–,7/94 μM,7/94 μM
CC(C)[C@H](N)C(=O)OCCCCC(=O)N(c1nn(CC(F)(F)F)c2c(-c3ccc(C#CC(C)(C)S(C)(=O)=O)nc3[C@H](Cc3cc(F)cc(F)c3)NC(=O)Cn3nc(C(F)(F)F)c4c3C(F)(F)[C@@H]3C[C@H]43)ccc(Cl)c12)S(C)(=O)=O [Compound 14],7 μM,1 μM,–,–
"CC(C)(C#Cc1ccc(-c2ccc(Cl)c3c(N(C(=O)CCCC(=O)O)S(C)(=O)=O)nn(CC(F)(F)F)c23)c([C@H](Cc2cc(F)cc(F)c2)NC(=O)Cn2nc(C(F)(F)F)c3c2C(F)(F)[C@@H]2C[C@H]32)n1)S(C)(=O)=O [Compound 25, 5-(N-(4-chloro-7-(2-((S)-1-(2-((3bS,4aR)-5,5-difluoro-3-(trifluoromethyl)-3b,4,4a,5-tetrahydro-1H-cyclopropa[3,4]cyclopenta[1,2-c]pyrazol-1-yl)acetamido)-2-(3,5-difluorophenyl)ethyl)-6-(3-methyl-3-(methylsulfonyl)but-1-yn-1-yl)pyridin-3-yl)-1-(2,2,2-trifluoroethyl)-1H-indazol-3-yl)methylsulfonamido)-5-oxopentanoic acid]",1/1 μM,1/1 μM,–,–

# Continued, in another order:
pH 2 solubility [1],pH 7 solubility [2],Compound,pH 2 solubility (pH 2),pH 7 solubility (pH 7.4)
1/1 μM,1/1 μM,"COC(=O)CCC(=O)N(c1nn(CC(F)(F)F)c2c(-c3ccc(C#CC(C)(C)S(C)(=O)=O)nc3[C@H](Cc3cc(F)cc(F)c3)NC(=O)Cn3nc(C(F)(F)F)c4c3C(F)(F)[C@@H]3C[C@H]43)ccc(Cl)c12)S(C)(=O)=O [Compound 10, methyl 4-(N-(4-chloro-7-(2-((S)-1-(2-((3bS,4aR)-5,5-difluoro-3-(trifluoromethyl)-3b,4,4a,5-tetrahydro-1H-cyclopropa[3,4]cyclopenta[1,2-c]pyrazol-1-yl)acetamido)-2-(3,5-difluorophenyl)ethyl)-6-(3-methyl-3-(methylsulfonyl)but-1-yn-1-yl)pyridin-3-yl)-1-(2,2,2-trifluoroethyl)-1H-indazol-3-yl)methylsulfonamido)-4-oxobutanoate]",–,–
65 μM,8 μM,"CC(C)(C#Cc1ccc(-c2ccc(Cl)c3c(N(C(=O)CN)S(C)(=O)=O)nn(CC(F)(F)F)c23)c([C@H](Cc2cc(F)cc(F)c2)NC(=O)Cn2nc(C(F)(F)F)c3c2C(F)(F)[C@@H]2C[C@H]32)n1)S(C)(=O)=O [Compound 12, 2-amino-N-(4-chloro-7-(2-((S)-1-(2-((3bS,4aR)-5,5-difluoro (trifluoromethyl)-3b,4,4a,5-tetrahydro-1H-cyclopropa[3,4]cyclopenta[1,2-c]pyrazolyl)acetamido)-2-(3,5-difluorophenyl)ethyl)-6-(3-methyl-3-(methylsulfonyl)but-1-ynyl)pyridin-3-yl)-1-(2,2,2-trifluoroethyl)-1H-indazol-3-yl)-N-(methylsulfonyl)acetamide]",–,–
72 μM,2 μM,"CN[C@H](C(=O)N(c1nn(CC(F)(F)F)c2c(-c3ccc(C#CC(C)(C)S(C)(=O)=O)nc3[C@H](Cc3cc(F)cc(F)c3)NC(=O)Cn3nc(C(F)(F)F)c4c3C(F)(F)[C@@H]3C[C@H]43)ccc(Cl)c12)S(C)(=O)=O)C(C)C [Compound 21, N-(4-chloro-7-(2-((S)-1-(2-((3bS,4aR)-5,5-difluoro-3-(trifluoromethyl)-3b,4,4a,5-tetrahydro-1H-cyclopropa[3,4]cyclopenta[1,2-c]pyrazol-1-yl)acetamido)-2-(3,5-difluorophenyl)ethyl)-6-(3-methyl-3-(methylsulfonyl)but-1-yn-1-yl)pyridin-3-yl)-1-(2,2,2-trifluoroethyl)-1H-indazol-3-yl)-3-methyl-2-(methylamino)-N-(methylsulfonyl)butanamide]",–,–
37 μM,6 μM,"CNCC(=O)N(c1nn(CC(F)(F)F)c2c(-c3ccc(C#CC(C)(C)S(C)(=O)=O)nc3[C@H](Cc3cc(F)cc(F)c3)NC(=O)Cn3nc(C(F)(F)F)c4c3C(F)(F)[C@@H]3C[C@H]43)ccc(Cl)c12)S(C)(=O)=O [Compound 19, (N-(4-chloro-7-(2-((S)-1-(2-((3bS,4aR)-5,5-difluoro (trifluoromethyl)-3b,4,4a,5-tetrahydro-1H-cyclopropa[3,4]cyclopenta[1,2-c]pyrazolyl)acetamido)-2-(3,5-difluorophenyl)ethyl)-6-(3-methyl-3-(methylsulfonyl)but-1-ynyl)pyridin-3-yl)-1-(2,2,2-trifluoroethyl)-1H-indazol-3-yl)-2-(methylamino)-N-(methylsulfonyl)acetamide)]",–,–
1/1 μM,1/1 μM,"COC(=O)N[C@@H](C)C(=O)N(c1nn(CC(F)(F)F)c2c(-c3ccc(C#CC(C)(C)S(C)(=O)=O)nc3[C@H](Cc3cc(F)cc(F)c3)NC(=O)Cn3nc(C(F)(F)F)c4c3C(F)(F)[C@@H]3C[C@H]43)ccc(Cl)c12)S(C)(=O)=O [Compound 7, methyl ((5)-1-(N-(4-chloro-7-(2-((S)-1-(2-((3bS,4aR)-5,5-difluoro-3-(trifluoromethyl)-3b,4,4a,5-tetrahydro-1H-cyclopropa[3,4]cyclopenta[1,2-c]pyrazol-1-yl)acetamido)-2-(3,5-difluorophenyl)ethyl)-6-(3-methyl-3-(methylsulfonyl)but-1-yn-1-yl)pyridin-3-yl)-1-(2,2,2-trifluoroethyl)-1H-indazol-3-yl)methylsulfonamido)-1-oxopropan-2-yl)carbamate]",–,–
69 μM,2 μM,"CC(C)[C@H](N)C(=O)N(c1nn(CC(F)(F)F)c2c(-c3ccc(C#CC(C)(C)S(C)(=O)=O)nc3[C@H](Cc3cc(F)cc(F)c3)NC(=O)Cn3nc(C(F)(F)F)c4c3C(F)(F)[C@@H]3C[C@H]43)ccc(Cl)c12)S(C)(=O)=O [Compound 20, (S)-2-amino-N-(4-chloro-7-(2-((S)-1-(2-((3bS,4aR)-5,5-difluoro-3-(trifluoromethyl)-3b,4,4a,5-tetrahydro-1H-cyclopropa[3,4]cyclopenta[1,2-c]pyrazol-1-yl)acetamido)-2-(3,5-difluorophenyl)ethyl)-6-(3-methyl-3-(methylsulfonyl)but-1-yn-1-yl)pyridin-3-yl)-1-(2,2,2-trifluoroethyl)-1H-indazol-3-yl)-3-methyl-N-(methylsulfonyl)butanamide]",–,–
